Source: patent US11020405B2, “Method for prevention or treatment of diabetic complications” (KANGWON NATIONAL UNIVERSITY UNIVERSITY-INDUSTRY COOPERATION …, priority 2017, dated 2021)

Experiments:
TGase = assay: Analysis of TGase activity of cells (5-(biotinamido)pentylamine incorporation); assay type: cell-based, human; details: HRECs
Protocol: (§1) Purchased from Applied Cell Biology Research Institute (Cell Systems, Kirkland, Wash.), human retinal endothelial cells (HRECs) were cultured in an M19 medium, containing 20% FBS, 3 ng/mL bFGF, 5 U/mL heparin, 100 U/mL penicillin and […], in a 2% gelatin-coated plate.
(§2) Before the following Test Examples 2 to 7, the HRECs were cultured for 6 hr in a medium containing 1% FBS and an antibiotic agent, thus preparing HRECs of Test Example 1.
With reference to FIG. 4A, the HRECs of Test Example 1 were treated with 0 to 20 μM midazolam, cultured for 2 hr, treated with 10 ng/mL VEGF, incubated for 2 hr, treated with 1 mM 5-(biotinamido)pentylamine, incubated for 1 hr, fixed with 3.7% formaldehyde, treated with 0.2% triton X-100, treated with a blocking solution containing 138 mM NaCl, 0.1% Tween 20 and 2% BSA dissolved in a 20 mM Tris (pH 7.6) buffer, incubated for 30 min, incubated for 1 hr with FITC-conjugated streptavidin (1:200, v/v), and then measured using confocal microscopy to thus determine the fluorescence intensity of single cells.
With reference to FIG. 4B, the HRECs of Test Example 1 were subjected to the respective treatments below and cultured for 30 min. Here, treatment with 10 ng/mL VEGF was performed for 2 hr. […]

[1] = tested on: human retinal endothelial cells (HRECs); assay: Analysis of intracellular Ca^2+ (Fluo4-AM, confocal microscopy); assay type: cell-based
Protocol: as §1, §2
With reference to FIG. 2A, the HRECs of Test Example 1 were subjected to the respective treatments below, stained with 2 μM Fluo4-AM at 37° C. for 30 min and then measured at time intervals of 10 sec using confocal microscopy (FV-300, Olympus, Tokyo, Japan).
With reference to FIG. 2B, the HRECs of Test Example 1 were subjected to the respective treatments below, cultured for 30 min, stained with 2 μM Fluo4-AM at 37° C. for 30 min and then measured at time intervals of 10 sec using confocal microscopy.

lungs of diabetic mice = assay: Hyperglycemia-induced pulmonary vascular leakage in diabetic mice (FITC-dextran); assay type: in vivo, C57BL/6 mice; details: 10 mg/kg midazolam intraperitoneal daily for 2 days (FIG. 21)
Protocol: FIGS. 21A and 21B show the preventive effects of midazolam against hyperglycemia-induced pulmonary vascular leakage in diabetic mice. Six-week-old male C57BL/6 mice were administered with streptozotocin (150 mg/kg body weight) to give diabetic mouse models. Two weeks after streptozotocin injection, diabetic mice were administered 10 mg/kg midazolam by intraperitoneal injection daily for 2 days, and vascular leakage was investigated. The body weight of mice were measure in normal (19.9±0.3 g), diabetic (17.7±0.3 g), and midazolam supplemented diabetic mice (17.6±0.3 g). Blood glucose levels were also monitored in normal (123.5±6.5 mg/dL), diabetic (505.0±89.0 mg/dL), and midazolam supplemented diabetic mice (500.3±63.3 mg/dL). The mice were anesthetized with 3% isoflurane, and 1.25 mg of FITC-dextran was injected into the right ventricle of each mouse and allowed to circulate for 5 min. The lungs were dissected, fixed, and embedded in OCT compound. Cryosections of lungs were stained with isolectin B4 and DAPI. Representative images of vascular leakage in lungs are shown in additional FIG. 21A. Scale bars, 100 μm. The results of vascular leakage quantitatively analyzed by measuring the fluorescence intensity of FITC-dextran in the lungs are shown in additional FIG. 21B (n=4 for normal and diabetic, n=6 for diabetic+Midazolam).

[2] = tested on: endothelial monolayer of HRECs; assay: Analysis of cell permeability (FITC-dextran, Transwell); assay type: cell-based, human; details: HREC monolayer, 10 ng/mL VEGF 90 min with 20 μM midazolam, 5 μM BAPTA-AM, 1 mM NAC, 0.5 μM Trolox, 50 μM cystamine or 20 μM MDC; 40 kDa FITC-dextran 60 min (FIG. 7)
Protocol: The HRECs were cultured (e.g. about 5 days) until the cell confluence thereof reached an appropriate level on gelatin-coated 0.4 μm polycarbonate membranes of Transwell Permeable Supports (Costar, Corning, N.Y.), followed by the respective treatments below and culture for 30 min. Here, treatment with 10 ng/mL VEGF was performed for 90 min. Thereafter, the HRECs were treated with 1 mg/mL 40 kDa FITC-dextran (Sigma-Aldrich), incubated for 60 min, after which the amount of FITC-dextran that was diffused into the lower chamber through the endothelial monolayer of HERCs was measured using a microplate spectrofluorometer (Molecular Devices, Sunnyvale, Calif.).

VEGF = assay: VEGF-induced vascular leakage in mouse ear (evans blue dye); assay type: in vivo, C57BL/6 mice; details: 24 hr before evans blue dye, 30 ng VEGF intradermally (FIG. 23)
Protocol: Six-week-old male C57BL/6 mice were administered 5 or 10 mg/kg midazolam by intraperitoneal injection. After 24 hr, mice were intravenously injected with 45 mg/kg evans blue dye. After 30 min circulation, 10 μl VEGF solution (30 ng) was injected intradermally into the dorsal part of ears. Representative images of vascular leakage in ears are shown in additional FIG. 23 (n=2/group).

SMILES: Cc1ncc2n1-c1ccc(Cl)cc1C(c1ccccc1F)=NC2 [midazolam]
- TGase activity, concentration dependence (TGase; 0 to 20 μM midazolam 2 hr, then 10 ng/mL VEGF 2 hr (FIG. 4A)): TGase activity was decreased with an increase in the concentration of midazolam
- TGase activity (VEGF-induced) compared to control (TGase; 10 ng/mL VEGF 2 hr with 20 μM midazolam, 5 μM BAPTA-AM, 1 mM NAC, 0.5 μM Trolox, 50 μM cystamine or 20 μM MDC (FIG. 4B)): substantially the same effect of inhibiting TGase activity as the TGase inhibitors cystamine and MDC
- changes in intracellular Ca^2+ (VEGF-induced) ([1]; 10 ng/ml VEGF and 20 μM midazolam together (FIG. 2A)): no significant changes in intracellular Ca^2+
- changes in intracellular Ca^2+ (VEGF-induced, after washing) ([1]; 20 μM midazolam 30 min, washing with serum-free medium, then 10 ng/ml VEGF (FIG. 2A)): intracellular Ca^2+ elevation was caused
- changes in intracellular Ca^2+ ([1]; 20 μM midazolam alone (FIG. 2A)): no significant changes in intracellular Ca^2+
- pulmonary vascular leakage (FITC-dextran extravasation) (lungs of diabetic mice): blocked by midazolam administration
- FITC-dextran diffused into lower chamber (cell permeability) / adherens junction disruption due to VEGF [2]: prevented the adherens junction disruption due to VEGF and thus FITC-dextran was not diffused
- VEGF-induced vascular leakage in mouse ear (VEGF; 5 mg/kg midazolam intraperitoneal): not at 5 mg/kg
- VEGF-induced vascular leakage in mouse ear (VEGF; 10 mg/kg midazolam intraperitoneal): suppressed
